Data set [1] has as its system VM46 Human Colon Carcinoma Xenografts. As for the experimental part: (§1) Other antitumor compounds were similarly formulated. […] The dosing volume was 0.3 mL per 20 g mouse.
(§2) Female NCr-nude mice (6-8 weeks of age, implanted subcutaneously with 1 mm^3 VM46 colon carcinoma fragments in the flank) were sorted into treatment groups of six mice each. […] Dosing was initiated on Day 1. The antitumor compounds were given i.v. at an estimated maximum tolerated dose (MTD) appropriate for each agent on a qd x 1 schedule (single administration of compound). […] Taxotere was given i.v. at a dose of 70 mg/kg on a qd x 1 schedule. The vehicle was given i.v. to control mice in Group 1 in each test on Day 1 (qd x 1) schedule. Treatment groups are detailed in Table 13. The VM46 study ended on Day 64.
The results are summarized in table 14 and include mean days of survival (MDS), number of toxic deaths, number of survivors, number of complete or partial responses, and number with stable disease. The mean days of survival is the number of days after which a neoplasm reached a size of 1.5 g and the animal was euthanized. A complete response is obtained if the tumor is not palpable at the end of the study. A partial response is obtained if the tumor shrinks to a size smaller than its size on Day 1 of the study. […]

Data set [2] has as its system Panc-1 Human Pancreatic Carcinoma Xenografts. As for the experimental part:
as §1
as §2, with “Panc-1 pancreatic” for “VM46 colon”, “12.” for “13.”, “The” for “The VM46”, “was terminated” for “ended”, “63.” for “64.”
The mean days of survival is the number of days after which a neoplasm reached a size of 1.5 g and the animal was euthanized. A complete response is obtained if the tumor is not palpable at the end of the study. A partial response is obtained if the tumor shrinks to a size smaller than its size on Day 1 of the study.

Data set [3] concerns A375 Human Melanoma Xenografts. The conditions noted are these: A375; for survival extension compared to Group 1 controls: i.v. qd x 1 (mg/kg: Taxol 24, 1393 72.6, 1418 107.6, Taxotere 70). As for the experimental part: (§3) Other antitumor compounds were similarly formulated. […] The dosing volume was 0.3 ml per 20 g mouse.
Female NCr-nude mice (implanted subcutaneously with 1 mm^3 A375 melanoma in the flank) were sorted into treatment groups of six mice each, except for the Taxotere group having seven mice each. […] Dosing was initiated on Day 1. The antitumor compounds were given i.v. at an estimated maximum tolerated dose (MTD) appropriate for each agent on a qd x 1 schedule (single administration of compound). […] Taxotere was given i.v. on a qd x 1 schedule at a dose of 70 mg/kg. The vehicle was administered i.v. to control mice in Group 1 on the qd x 1 schedule. Treatment groups are detailed in Table 9. The study was terminated on Day 60.
The results are summarized in Table 10 and include mean days of survival (MDS), number of toxic deaths, number of survivors, number of complete or partial responses, and number with stable disease. The mean days of survival is the number of days after which a tumor reached a size of 2.0 g and the animal was euthanized. A complete response is obtained if the tumor is not palpable at the end of the study. A partial response is obtained if the tumor shrinks to a size smaller than its size on Day 1 of the study. […]

Data set [4] has as its system DU 145 Human Prostate Carcinoma Xenografts. The conditions noted are these: DU145. As for the experimental part:
as §3
Male NCr-nude mice (implanted subcutaneously with 1 mm^3 DU145 prostate carcinoma fragments in the flank) were sorted into treatment groups of five mice each. […] Dosing was initiated on Day 1. The antitumor compounds were given i.v. at an estimated maximum tolerated dose (MTD) appropriate for each agent on a qd x 1 schedule (single administration of compound). […] The vehicle was administered i.v. to control mice in Group 1 on the qd x 1 schedule. The study was terminated on Day 91. Treatment groups are detailed in Table 5.
The mean days of survival is the number of days after which a neoplasm reached a size of 1.5 g and the animal was euthanized. A complete response is obtained if the tumor is not palpable at the end of the study. A partial response is obtained if the tumor shrinks to a size smaller than its size on Day 1 of the study. […]

The mark [5] stands for this setting: 107.6 mg/kg i.v. qd x 1, 6 mice/group, study end Day 64.
Where [6] appears, read: i.v. qd x 1 at estimated MTD, 6 mice/group, study end Day 63.
The mark [7] stands for this setting: i.v. qd x 1 (mg/kg: Taxol 24, 1351 107.6, 1393 72.6, 1401 107.6, 1418 107.6, 1424 195.1, Taxotere 70), Day 60.
Where [8] appears, read: i.v. qd x 1 (mg/kg: Taxol 24, 1351 107.6, 1393 72.6, 1401 107.6, 1418 107.6, 1424 195.1), 5 mice/group, Day 91.

Like-named read-outs stand apart in the source and are kept apart here.

Turning to `CCC(=O)O[C@H]1C[C@H]2OC[C@@]2(OC(C)=O)[C@H]2[C@H](OC(=O)c3ccccc3)[C@]3(O)C[C@H](OC(=O)[C@H](O)[C@@H](NC(=O)OC(C)(C)C)c4cccs4)C(C)=C([C@@H](O)C(=O)[C@]12C)C3(C)C` [Compound 1418], the “Complete Response” value turned out to be 0 in data set [1] (setting [5]); 0 in data set [2] (iv, 1512 h); 0 in data set [3] (setting [7]); 1 in data set [4] (setting [8]). Also, the “Mean Score” value in data set [1] (setting [5]) is recorded as 3.5 ± 0.8; in data set [2] (iv, 1512 h), 8 ± 0.6; in data set [3] (i.v. qd x 1 (mg/kg: Taxol 24, 1351 107.6, 1393 72.6, 1401 107.6, 1418 107.6, 1424 195.1, Taxotere 70), tumor score 1 to 10, group mean) it was 4 ± 1.3; in data set [4] (i.v. qd x 1 (mg/kg: Taxol 24, 1351 107.6, 1393 72.6, 1401 107.6, 1418 107.6, 1424 195.1), tumor score 1 to 10, group mean), 7.2 ± 1.2. In addition, the “Partial Response” value was 0 in data set [1] (setting [5]); 5 in data set [2] (iv, 1512 h); 1 in data set [3] (setting [7]); 2 in data set [4] (setting [8]). Also, the “Stable Disease” value in data set [1] (setting [5]) was found to be 3; in data set [2] (iv, 1512 h), 1; in data set [4] (setting [8]), 1. For the same molecule, the Survivors was 3 in data set [1] (setting [5]), 6 in data set [2] (setting [6]), 2 in data set [3] (setting [7]) and 4 in data set [4] (setting [8]). Also, the “Toxic Deaths” value in data set [1] (setting [5]), in data set [2] (setting [6]) and in data set [4] (setting [8]) was 0 in each case. Also, the “MDS (n)” value in data set [1] (107.6 mg/kg i.v. qd x 1, 6 mice/group, study end Day 64, days until tumor reached 1.5 g) is listed as 41.7 ± 3.4 (3) days; in data set [3] (i.v. qd x 1 (mg/kg: Taxol 24, 1351 107.6, 1393 72.6, 1401 107.6, 1418 107.6, 1424 195.1, Taxotere 70), 2.0 g cut-off, Day 60) it was 34.5 ± 3.1 (3) days. For the same molecule, the “maximal mean group weight losses” value in data set [1] (mouse, in vivo, iv) is reported as 3-14%. In addition, the Partial Responses in data set [2] (Panc-1, i.v. qd x 1 (mg/kg: 1393 72.6, 1418 107.6), 6 mice/group, Day 63) came to 5. In addition, the “mean group weight losses” value in data set [2] (mouse, in vivo, iv) is 3-13%. The “survival extension compared to Group 1 controls” value in data set [3] was determined as 140%. Also, the total response rate in data set [4] (i.v. qd x 1 at estimated MTD) is at least 50%.

As to `CCC(=O)OC1CC2OCC2(OC(C)=O)C2C(OC(=O)c3ccccc3)C3(O)CC(OC(=O)C(O)C(NC(=O)OC(C)(C)C)c4ccco4)C(C)=C(C(O)C(=O)C12C)C3(C)C` (stereo not shown) [Compound 1393, 3'-Desphenyl-3'-(2-furyl)-7-propionyl taxotere], the Survivors in data set [1] (72.6 mg/kg i.v. qd x 1, 6 mice/group, study end Day 64) was 1; in data set [2] (setting [6]), 6; in data set [3] (setting [7]), 0; in data set [4] (setting [8]) it was 4. The “survival extension compared to Group 1 controls” value in data set [3] is 250%.

Source of the values: patent EP1285918A1, “C7 Ester substituted taxanes as antitumor agents” (Florida State University Research Foundation, Inc., priority 2001, dated 2003).
